Assay [1] has as its target T1, WRN [UniPro: Q14191 (WRN_HUMAN), N500-C946] (Homo sapiens (Human), UniProt Q14191). Briefly: WRN ATPase assay (ADP-Glo). Conditions: WRN enzymatic activity assay. It is filed as biochemical. The protocol:
WRN ATPase assay was initiated to evaluate potential inhibitory effect of compounds for ATP hydrolysis activity of WRN protein. WRN [UniPro: Q14191 (WRN_HUMAN), N500-C946] was expressed and purified in insect system and stored at −80° C. in aliquots. […] ADP quantity produced from ATP hydrolysis by WRN catalytic reaction was measured using a commercially available ADP-Glo Assay (ADP-Glo™ Kinase Assay from Promega, 10000 assays, #V9102). […] Compounds dissolved in DMSO (Sigma, D8418) were plated into a 96-well intermediate plate (BioFil, VWP-032-096) for 3-fold serial titration for 10 points using DMSO, and well-to-well transfer the titrated compounds into another 96-well intermediate plate including assay buffer in advance. Shake the 96-well intermediate plate at 600 rpm for 10 min to fully mix. Specifically, a 4× working mixture of WRN was diluted to a concentration of 8 nM in assay buffer. […] After centrifuging at 1000 rpm and shaking at 500 rpm, the assay plate was pre-incubated for 30 min. Then, 5 μL 2×FORKF DNA and ATP working mixture was dispensed into assay plate. Plate was sealed, centrifuged and incubated for an additional 40 min. at 37° C. The reaction was stopped with the addition of 10 μL of the first ADP-Glo reagent and incubated for 40 min. to remove the excess amount of ATP. Afterwards, 20 μL of ATP detection reagent was added and incubated for 30 min. before reading. Luminescence output was recorded using BMG CLARIO star plus reader. Each concentration of compound was tested in duplicates in the assay plate. Average luminescence signal of high control (Wells with 1% DMSO) was calculated as High Control (HC). Average luminescence signal of low control (Wells with no WRN protein) was calculated as Low control (LC).
IC50 values were determined by fitting the data to the standard 4 parameters with Hill Slope using GraphPad Prism software.

In assay [2] the target is T1, WRN [UniPro: Q14191 (WRN_HUMAN), N500-C946]. In words: WRN unwinding assay (FORKF DNA, fluorescence). It is filed as biochemical. Conditions: Table 14.

SMILES strings stand for the structures. Where only a bound is given, the exact number is not on record here.

This is an account of results in patent US20260015358A1, “BICYCLIC DERIVATIVES, COMPOSITIONS AND USES THEREOF” (Danatlas Pharmaceuticals Co., Ltd., priority 2023, published 2026).

T1 sequence (Q14191 500-946): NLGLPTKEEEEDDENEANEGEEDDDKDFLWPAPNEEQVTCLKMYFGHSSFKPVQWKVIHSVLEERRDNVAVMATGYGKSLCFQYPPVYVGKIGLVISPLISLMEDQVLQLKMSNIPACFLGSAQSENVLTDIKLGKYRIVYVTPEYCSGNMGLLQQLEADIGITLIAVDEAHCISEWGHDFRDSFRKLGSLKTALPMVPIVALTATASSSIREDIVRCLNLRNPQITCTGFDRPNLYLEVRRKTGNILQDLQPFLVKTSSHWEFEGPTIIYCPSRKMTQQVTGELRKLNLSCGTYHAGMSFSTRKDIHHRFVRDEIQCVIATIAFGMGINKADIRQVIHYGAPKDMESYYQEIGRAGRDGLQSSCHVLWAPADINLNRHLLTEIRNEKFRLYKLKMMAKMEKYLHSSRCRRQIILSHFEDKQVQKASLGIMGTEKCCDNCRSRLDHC

On to `CCc1c(N2CCN(C(=O)CNC(=O)c3nccs3)CC2)c(=O)n2nc(C3=CCOCC3)nc2n1CC(=O)Nc1ccc(C(F)(F)F)cc1F` [Example 216, N-(2-(4-(2-(3,6-Dihydro-2H-pyran-4-yl)-5-ethyl-4-(2-((2-fluoro-4-(trifluoromethyl)phenyl)amino)-2-oxoethyl)-7-oxo-4,7-dihydro-[1,2,4]triazolo[1,5-a]pyrimidin-6-yl)piperazin-1-yl)-2-oxoethyl)thiazole-2-carboxamide], for which the IC50 in assay [1] and in assay [2] was less than 100 nM in each case.

Turning to `CCc1c(N2CCN(C(=O)CNC(=O)c3ccccc3F)CC2)c(=O)n2nc(N3Cc4ccncc4C3)nc2n1CC(=O)Nc1ccc(C(F)(F)F)cc1Cl` [Example 246, N-(2-(4-(4-(2-((2-Chloro-4-(trifluoromethyl)phenyl)amino)-2-oxoethyl)-2-(1,3-dihydro-2H-pyrrolo[3,4-c]pyridin-2-yl)-5-ethyl-7-oxo-4,7-dihydro-[1,2,4]triazolo[1,5-a]pyrimidin-6-yl)piperazin-1-yl)-2-oxoethyl)-2-fluorobenzamide], the results for the IC50 in assay [1] and in assay [2] were 100 to 1000 nM and less than 100 nM, respectively.

Turning to `CCc1c(N2CCN(C(=O)CNc3ncnc4[nH]ccc34)CC2)c(=O)n2nc(C3=CCOCC3)nc2n1CC(=O)Nc1ccc(C(F)(F)F)cc1Cl` [Example 363, 2-(6-(4-((7H-Pyrrolo[2,3-d]pyrimidin-4-yl)glycyl)piperazin-1-yl)-2-(3,6-dihydro-2H-pyran-4-yl)-5-ethyl-7-oxo-[1,2,4]triazolo[1,5-a]pyrimidin-4(7H)-yl)-N-(2-chloro-4-(trifluoromethyl)phenyl)acetamide], the IC50 in assay [1] and in assay [2] was greater than 1000 nM throughout.

In the case of `CCc1c(N2CCN(C(=O)CNc3ncnc4cccnc34)CC2)c(=O)n2nc(C3=CCOCC3)nc2n1CC(=O)Nc1ccc(C(F)(F)F)cc1Cl` [Example 362, N-(2-Chloro-4-(trifluoromethyl)phenyl)-2-(2-(3,6-dihydro-2H-pyran-4-yl)-5-ethyl-7-oxo-6-(4-(pyrido[3,2-d]pyrimidin-4-ylglycyl)piperazin-1-yl)-[1,2,4]triazolo[1,5-a]pyrimidin-4(7H)-yl)acetamide], the IC50 in assay [1] is 100 to 1000 nM; in assay [2], less than 100 nM.

With `CCc1c(N2CCN(C(=O)C(=O)Nc3nc(C)co3)CC2)c(=O)n2nc(C3=CCOCC3)nc2n1CC(=O)Nc1ccc(C(F)(F)F)cc1F` [Example 355, 2-(4-(2-(3,6-Dihydro-2H-pyran-4-yl)-5-ethyl-4-(2-((2-fluoro-4-(trifluoromethyl)phenyl)amino)-2-oxoethyl)-7-oxo-4,7-dihydro-[1,2,4]triazolo[1,5-a]pyrimidin-6-yl)piperazin-1-yl)-N-(4-methyloxazol-2-yl)-2-oxoacetamide], the IC50 in assay [1] and in assay [2] was less than 100 nM throughout.

As to `CCc1c(N2CCN(C(=O)C(F)N3C(=O)c4ccccc4C3=O)CC2)c(=O)n2nc(C3=CCOCC3)nc2n1CC(=O)Nc1ccc(C(F)(F)F)cc1Cl` (centres unmarked) [Example 345, N-(2-chloro-4-(trifluoromethyl)phenyl)-2-(2-(3,6-dihydro-2H-pyran-4-yl)-6-(4-(2-(1,3-dioxoisoindolin-2-yl)-2-fluoroacetyl)piperazin-1-yl)-5-ethyl-7-oxo-[1,2,4]triazolo[1,5-a]pyrimidin-4(7H)-yl)acetamide], the half-inhibitory concentration (IC50) in assay [1] and in assay [2] was 100 to 1000 nM each time.

Consider `CCc1c(N2CCN(C(=O)CNC(=O)Cc3ccccc3)CC2)c(=O)n2nc(C3=CCOCC3)nc2n1CC(=O)Nc1ccc(C(F)(F)F)cc1Cl` [Example 267, N-(2-Chloro-4-(trifluoromethyl)phenyl)-2-(2-(3,6-dihydro-2H-pyran-4-yl)-5-ethyl-7-oxo-6-(4-((2-phenylacetyl)glycyl)piperazin-1-yl)-[1,2,4]triazolo[1,5-a]pyrimidin-4(7H)-yl)acetamide], for which the IC50 in assay [1] and in assay [2] was less than 100 nM in each case.

Regarding `CCc1c(N2CCN(C(=O)CNC(=O)c3cc(F)ccc3F)CC2)c(=O)n2nc(C3=CCOCC3)nc2n1CC(=O)Nc1ccc(C(F)(F)F)cc1Cl` [Example 118, N-(2-(4-(4-(2-((2-Chloro-4-(trifluoromethyl)phenyl)amino)-2-oxoethyl)-2-(3,6-dihydro-2H-pyran-4-yl)-5-ethyl-7-oxo-4,7-dihydro-[1,2,4]triazolo[1,5-a]pyrimidin-6-yl)piperazin-1-yl)-2-oxoethyl)-2,5-difluorobenzamide], the IC50 in assay [1] and in assay [2] was less than 100 nM in each case.

Consider `CCc1c(N2CCN(C(=O)CNC(=O)c3ccc(F)c(N(C)C)c3)CC2)c(=O)n2nc(C3=CCOCC3)nc2n1CC(=O)Nc1ccc(C(F)(F)F)cc1Cl` [Example 286, N-(2-(4-(4-(2-((2-Chloro-4-(trifluoromethyl)phenyl)amino)-2-oxoethyl)-2-(3,6-dihydro-2H-pyran-4-yl)-5-ethyl-7-oxo-4,7-dihydro-[1,2,4]triazolo[1,5-a]pyrimidin-6-yl)piperazin-1-yl)-2-oxoethyl)-3-(dimethylamino)-4-fluorobenzamide], for which the IC50 in assay [1] and in assay [2] was less than 100 nM each time.

For the molecule `CCc1c(N2CCN(C(=O)CNC(=O)c3c[nH]cn3)CC2)c(=O)n2nc(C3=CCOCC3)nc2n1CC(=O)Nc1ccc(C(F)(F)F)cc1Cl` [Example 121, N-(2-(4-(4-(2-((2-Chloro-4-(trifluoromethyl)phenyl)amino)-2-oxoethyl)-2-(3,6-dihydro-2H-pyran-4-yl)-5-ethyl-7-oxo-4,7-dihydro-[1,2,4]triazolo[1,5-a]pyrimidin-6-yl)piperazin-1-yl)-2-oxoethyl)-1H-imidazole-4-carboxamide], the IC50 in assay [1] and in assay [2] was less than 100 nM throughout.

For the molecule `CCc1c(N2CCN(C(=O)CNC(=O)c3ccccc3F)CC2)c(=O)n2nc(C3=CCOCC3)nc2n1CC(=O)Nc1ccc(C(F)(F)F)cc1` [Example 148, N-(2-(4-(2-(3,6-Dihydro-2H-pyran-4-yl)-5-ethyl-7-oxo-4-(2-oxo-2-((4-(trifluoromethyl)phenyl)amino)ethyl)-4,7-dihydro-[1,2,4]triazolo[1,5-a]pyrimidin-6-yl)piperazin-1-yl)-2-oxoethyl)-2-fluorobenzamide], the IC50 in assay [1] and in assay [2] was less than 100 nM in each case.

For the molecule `CCc1c(N2CCN(C(=O)c3cc4ccn(C)c4cc3O)CC2)c(=O)n2nc(C3=CCOCC3)nc2n1CC(=O)Nc1ccc(C(F)(F)F)cc1Cl` [Example 80, N-(2-Chloro-4-(trifluoromethyl)phenyl)-2-(2-(3,6-dihydro-2H-pyran-4-yl)-5-ethyl-6-(4-(6-hydroxy-1-methyl-1H-indole-5-carbonyl)piperazin-1-yl)-7-oxo-[1,2,4]triazolo[1,5-a]pyrimidin-4(7H)-yl)acetamide], the IC50 in assay [1] was 100 to 1000 nM; in assay [2] it was less than 100 nM.

In the case of `CCc1c(N2CCN(C(=O)CNC(=O)c3ncc(C)s3)CC2)c(=O)n2nc(C3=CCOCC3)nc2n1CC(=O)Nc1ccc(C(F)(F)F)cc1Cl` [Example 128, N-(2-(4-(4-(2-((2-Chloro-4-(trifluoromethyl)phenyl)amino)-2-oxoethyl)-2-(3,6-dihydro-2H-pyran-4-yl)-5-ethyl-7-oxo-4,7-dihydro-[1,2,4]triazolo[1,5-a]pyrimidin-6-yl)piperazin-1-yl)-2-oxoethyl)-5-methylthiazole-2-carboxamide], the IC50 in assay [1] is 100 to 1000 nM; in assay [2], less than 100 nM.

For the molecule `CCc1c(N2CCN(C(=O)C(=O)NOC)CC2)c(=O)n2nc(C3=CCOCC3)nc2n1CC(=O)Nc1ccc(C(F)(F)F)cc1Cl` [Example 330, 2-(4-(4-(2-((2-Chloro-4-(trifluoromethyl)phenyl)amino)-2-oxoethyl)-2-(3,6-dihydro-2H-pyran-4-yl)-5-ethyl-7-oxo-4,7-dihydro-[1,2,4]triazolo[1,5-a]pyrimidin-6-yl)piperazin-1-yl)-N-methoxy-2-oxoacetamide], the IC50 in assay [1] and in assay [2] was less than 100 nM throughout.

On to `CCc1c(N2CCN(C(=O)C(=O)Nc3nc(C)co3)CC2)c(=O)n2nc(C3=CCOCC3)nc2n1CC(=O)Nc1ccc(C(F)(F)F)cc1Cl` [Example 353, 2-(4-(4-(2-((2-Chloro-4-(trifluoromethyl)phenyl)amino)-2-oxoethyl)-2-(3,6-dihydro-2H-pyran-4-yl)-5-ethyl-7-oxo-4,7-dihydro-[1,2,4]triazolo[1,5-a]pyrimidin-6-yl)piperazin-1-yl)-N-(4-methyloxazol-2-yl)-2-oxoacetamide], for which the IC50 in assay [1] and in assay [2] was less than 100 nM throughout.

On to `CCc1c(N2CCN(C(=O)c3ccn4nc(C)cc4c3O)CC2)c(=O)n2nc(C3=CCOCC3)nc2n1CC(=O)Nc1ccc(C(F)(F)F)cc1Cl` [Example 72, N-(2-Chloro-4-(trifluoromethyl)phenyl)-2-(2-(3,6-dihydro-2H-pyran-4-yl)-5-ethyl-6-(4-(4-hydroxy-2-methylpyrazolo[1,5-a]pyridine-5-carbonyl)piperazin-1-yl)-7-oxo-[1,2,4]triazolo[1,5-a]pyrimidin-4(7H)-yl)acetamide], for which the IC50 in assay [1] and in assay [2] was less than 100 nM throughout.
